Measurements published in US20110003774A1, “COMPOUNDS HAVING ANTI-PROLIFERATIVE PROPERTIES” (VITAL HEALTH SCIENCES PTY. LTD., priority 2003, published 2011).

Experiments:
[1] = system: Rat Aortic Smooth Muscle Cells (RASMC); assay: Smooth muscle cell proliferation - cell counts (Example 1); format: cell-based; settings: for Inhibition of cellular proliferation (in words): cell counts after 72 h, tested 0.25-100 μM
Source text: The Rat Aortic Smooth Muscle Cells (RASMC) used in proliferative studies are derived from the tunica intima and tunica media of healthy, fibrous plaque-free adult rat aorta. This cell line is an accepted model for the study of atherosclerosis, since increased arterial smooth muscle mass are found in the intima lesion of atherosclerosis. RASMC are cryopreserved at second passage and can be propagated at least 16 population doublings. RASMC respond to various factors by cell proliferation and hypertrophy, which are prominent indicators of atherosclerosis in vascular disease. RASMC are well suited for the study of large vessel smooth muscle cell growth and differentiation and serve as an in vitro model in correlation with live rat models.
Rat Aortic Smooth Muscle Cells (RASMC) were seeded in growth medium (basal medium+10% FBS) into 6 well plates (50,000 cells/well). After 24 h, cells were washed twice with Hanks Buffered Salt Solution and serum depleted media (basal medium+0.2% FBS) was added to each well. Cells were serum starved for 48 h. Treatments were then prepared in growth medium and added to each well (3 ml/well). Each treatment was conducted in triplicate. The effect of tocopherol and tocopherol phosphate on smooth muscle cell proliferation was tested at eight concentrations: 0.25, 0.5, 1, 5, 10, 20, 50 and 100 μM. Control treatments included: growth medium and growth medium+vehicle (EtOH, 1/1000). After a 72 h incubation period at 37° C., 5% CO2, cells were counted.
Cell proliferation was assessed and quantified by cell counting. Cells were counted after 48 h starvation in basal medium supplemented with 0.2% serum before the addition of test compounds. The average cell count of triplicate wells was ˜60,000. This number exceeds the number of cells seeded prior to starvation (50,000). Therefore the cells were determined to be viable and treatments were added to each well as described previously.

[2] = system: CD36 scavenger receptor; assay: Surface expression of CD36 scavenger receptor, FACS with antiCD36-FITC; format: cell-based, human; settings: THP-1 monocytes, control cells treated with tocopherol
Protocol: (§1) Cell Culture: Tocopherol and the TP/T2P mixture were each dissolved in ethanol, and the concentrations of the stock solutions were confirmed spectrophotometrically. Monocytes (THP-1) were grown in RPMI/10% FCS.
FIG. 6 represents the change in cell numbers over time as indicated by the number of cells which have taken up the fluorescent antibody.

[3] = system: THP-1 monocytes; assay: Uptake of oxLDL-DiO by FACS; format: cell-based, human
Protocol: Labeling oxLDL. OxLDLs (90% to 100% oxidation) were purchased from Intracell Corp. Small amounts of LDL were oxidized with CuSO4 ([…]) at 37° C. for 18 to 22 hours. LDL oxidation was confirmed by the formation of a characteristic smear band on an agarose gel. Labeling of oxLDL was done basically as previously described. OxLDLs were incubated at 37° C. with DiO (Molecular Probes) in lipoprotein-deficient serum (Sigma) for 15 hours. The labeled oxLDLs (oxLDL-DiO) were purified by ultracentrifugation over a KBr gradient and dialyzed against several changes of saline-EDTA ([…] NaCl-0.01% EDTA) for 6 hours.
Uptake of oxLDL: Uptake of oxLDL was studied with fluorescence-activated cell sorting (FACS). For FACS, the cells were pretreated for 16 hours with 50 μM tocopherol, tocopheryl phosphates, or ethanol solvent (control) and then incubated with oxLDL-DiO (5 μg/mL medium) for 6 hours. For competition experiments, the cells were incubated with monoclonal anti-CD36 antibody (60 μg/5 mL DMEM) (Ancell), with an unspecific isotype-matched antibody (mouse IgM, Ancell), or with unlabeled oxLDL (100 μg/5 mL DMEM) (Intracell Corp). Thereafter, the cells were washed 3 times with PBS and twice with PBS-3 mg/mL BSA and then were detached with trypsin (0.25% trypsin, 0.03% EDTA). […] Data were calculated by subtracting the cell autofluorescence from the fluorescence of the treated samples.

[4] = system: THP-1 monocytes; assay: Growth inhibition of THP-1 monocytes; format: cell-based, human
Protocol: as §1
Growth inhibition by TP/T2P mixture of THP-1 Monocytes: Monocyte proliferation is an important event in the onset and progression of atherosclerosis.

[5] = system: Rat Aortic Smooth Muscle Cells (RASMC); assay: Counting adhered cells (Example 2, Study 1); format: cell-based; settings: adhered cell counts, 0-100 μM, vs vehicle control
Protocol: This example assesses the anti-proliferative activity of α-tocopheryl phosphate (TP), di-tocopheryl phosphate (T2P), the TP/T2P mixture and α-tocopherol using two types of cell counting assays: adhered cell counts and MTS assay.
In this study cells remaining on the bottom of the plate were counted and anti-proliferative activity was assessed based on the number of viable cells that remained adhered to the plate.

[6] = system: Rat Aortic Smooth Muscle Cells (RASMC); assay: MTS proliferation assay (Example 2, Study 2); format: cell-based; settings: 100 μM, vs vehicle control
Protocol: The MTS proliferation assay was conducted to further support and compliment the adhered cell counts assay. The MTS assay is a well established method for the assessment of cellular proliferation which takes into account the viable cells that are adhered to the plate (as in adhered cell counts) and those that may become detached and float in the media during the course of the experiment (which would be missed in adhered cell counts).

Cc1c(C)c2c(c(C)c1O)CC[C@@](C)(CCC[C@H](C)CCC[C@H](C)CCCC(C)C)O2 [tocopherol, α-tocopherol]
Optimum inhibition of proliferation (plateau) ([1]; 72 h, higher doses): around 60%
Inhibition of cellular proliferation (in words) ([1]; listed as Tocopherol): inhibited only to some degree
Inhibition of cellular proliferation (in words) ([1]; listed as α-tocopherol): partially inhibited
CD36 expression (in words) [2]: expressed large amounts of CD36 receptors
Concentration giving the same inhibition of oxLDL uptake (as 50 μM tocopherol, 33% reduction) [3]: 50 µM
Reduction of OxLDL-DiO uptake signal (median of the peak) ([3]; 50 μM, 16 h pretreatment, 6 h oxLDL-DiO): 33%
Inhibition of monocyte proliferation (in words) ([4]; THP-1, TP/T2P at 30 μM (TP1) and 60 μM (TP2), especially after 48 h, relative to ethanol control): not able to inhibit
Inhibition of proliferation of human monocyte cells ([4]; THP-1 monocytes): no inhibition

α-tocopheryl phosphate [TP]
Maximum inhibition of smooth muscle cell proliferation [5]: did not inhibit
Inhibition of smooth muscle cell proliferation [6]: up to 85%
